Measurements published in patent US20260265227A1, “AMIDE PRODRUGS AND USES THEREOF” (Autobahn Therapeutics, Inc., priority 2022, published 2026).

Molecular target: T1, recombinant human FAAH (rhFAAH) (Homo sapiens, UniProt O00519)
T1 construct: purchased Cayman Chemical (Ann Arbor, MI, USA)
T1 sequence (O00519 1-579): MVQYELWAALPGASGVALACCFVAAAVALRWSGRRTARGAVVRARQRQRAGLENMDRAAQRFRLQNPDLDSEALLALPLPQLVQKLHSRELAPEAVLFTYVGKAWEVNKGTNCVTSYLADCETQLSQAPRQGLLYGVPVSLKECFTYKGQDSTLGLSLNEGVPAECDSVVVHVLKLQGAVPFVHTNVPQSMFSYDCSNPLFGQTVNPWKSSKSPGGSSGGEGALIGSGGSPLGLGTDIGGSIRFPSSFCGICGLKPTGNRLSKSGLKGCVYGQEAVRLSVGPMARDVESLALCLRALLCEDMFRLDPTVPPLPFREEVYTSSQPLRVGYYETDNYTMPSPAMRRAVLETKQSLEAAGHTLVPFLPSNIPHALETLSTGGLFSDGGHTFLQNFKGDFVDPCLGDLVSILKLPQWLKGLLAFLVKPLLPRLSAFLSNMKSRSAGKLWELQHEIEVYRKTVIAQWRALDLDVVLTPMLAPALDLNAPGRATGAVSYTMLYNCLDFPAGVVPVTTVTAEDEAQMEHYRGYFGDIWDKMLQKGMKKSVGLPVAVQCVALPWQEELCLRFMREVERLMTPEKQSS
Assay: FAAH Substrate Evaluation (formation of acid metabolite from amide prodrug)
Assay type: biochemical
Details: 0.5 ng/μL rhFAAH, 1 μM test compound, Tris-EDTA buffer pH 8.0, 0.1% BSA, room temperature, 0-60 minutes, LC-MS/MS
Procedure: Purified recombinant human FAAH (rhFAAH) was purchased from Cayman Chemical (Ann Arbor, MI, USA). The total volume for each incubation was 400 μL containing a final 0.5 ng/μL rhFAAH, 1 μM test compound, 1.25% ethanol or 1 μM PF-3845 (FAAH inhibitor), and 0.1% bovine serum albumin in Tris-EDTA buffer at pH 8.0). The positive control was LL-341001. The incubation was conducted at the room temperature. At 0, 5, 15, 30 and 60 minutes, an aliquot of 30 μL reaction mixtures was removed and mixed with 300 μL acetonitrile containing 5 ng/mL terfenadine and 10 ng/ml tolbutamide as internal standards to quench the reaction. The resulting mixture was centrifuged at 4000 rpm, 4° C. for 15 minutes, and 100 μL supernatant was ready for LC-MS/MS analysis to measure the formation of acid metabolite.
Acquity Ultra Performance LC system from Waters was used for sample analysis. The chromatography was performed on a reverse phase Kinetex 2.6 μm C18 column, 2.1×30 mm, 100 Å. The mobile phase A comprised of 0.1% formic acid in water and mobile phase B comprised of 0.1% formic acid in acetonitrile with a 2-min run time at the flow rate of 0.8 mL/min for the acid metabolite from positive control or a 1.5 min run time at the flow rate of 0.9 mL/min for the acid metabolite of test compounds. The mass spectrometer (API-5500 and API Q Trap 4000 Applied Biosystems/MDS SCIEX Instruments, Framingham, MA, USA) was operated under ESI positive or negative ion MRM mode.
The formation of acid metabolite was monitored and quantified using one calibration point of 1 μM. The observed rate constant (ke) for the acid metabolite formation was calculated by plotting the metabolite concentration versus time of incubation with the slope being ke and is shown in Table 1.

C[C@H]1Cc2cc(OCCCC(F)(F)F)ccc2C=C1CN1CC(C(=O)NCCC(F)(F)F)C1 [Compound 25, (S)-1-((3-methyl-6-(4,4,4-trifluorobutoxy)-3,4-dihydronaphthalen-2-yl)methyl)-N-(3,3,3-trifluoropropyl) azetidine-3-carboxamide]
ke (observed rate constant for the acid metabolite formation): A (ke is more than or equal to 1.0)
